Series [1] in a line: In vitro microsomal stability, murine microsomal suspension.
For series [2] the following is noted: cited from earlier work.
The conditions of series [3]: cited from earlier work. The source holds these as a separate data set.
For series [4], the system named is human kidney epithelia cells HEK293. As to the kind of experiment: Single concentration cytotoxicity against HEK293. The note with it: HEK293, 50 μM, 24 h, relative to DMSO-treated cells.
For series [5] the following is noted: male Sprague Dawley rats; cited from earlier work.
A short description of series [6]: In vitro microsomal stability, human microsomal suspension.
Series [7] concerns Mycobacterium abscessus ATCC 19977. Particulars: in vitro; cited from earlier work.
The conditions of series [8]: after 4 h of incubation, Medicines for Malaria Venture data; cited from earlier work.
In series [9] the test system is Mycobacterium tuberculosis H37Rv. Particulars: in vitro; cited from earlier work.
A short description of series [10]: Single concentration cytotoxicity against HEK293. The note with it: human.
Where [11] appears, read: 2 μM substrate, 0.42 mg/mL microsomal proteins, 100 mM phosphate buffer pH 7.4.
[12] abbreviates: after 7 min, 2 μM substrate, 0.42 mg/mL microsomal proteins, pH 7.4.

Converted amounts (≈) assume the structure as drawn. “And” between values parts separate entries of the source, which are not always exact repeats. Equal values may be shown once.

Take `O=C(N[C@H](Cc1ccccc1)C(=O)Nc1ccccc1N1CCOCC1)c1cccs1` [MMV]: in series [1] (setting [11]), the “half-life in murine microsomal suspension” value was 0.9 min. Moreover, the “remaining substance in murine microsomal suspension” value in series [1] (setting [12]) worked out at 0%. Moreover, the “stability during incubation with human liver microsomes” value in series [2] was “highly unstable”. Besides, in [3], the “stability during incubation with murine liver microsomes” value is reported as “highly unstable”. The relative cell viability in series [4] stood at 67%. For the same molecule, in [5], the “plasma levels after oral administration” value is “insufficient plasma levels”. The “half-life in human microsomal suspension” value in [6] (setting [11]) came out at 1.2 min. Moreover, the “remaining substance in human microsomal suspension” value in [6] (setting [12]) was 2%. Further, in series [7], the “MIC90 against Mabs” value was 6.25 µM (≈ 2.72 µg/mL). Moreover, in series [8], the “remaining substance in murine plasma” value is 60%.

For `O=C(N[C@H](Cc1ccccc1)C(=O)Nc1ccccc1N1CCS(=O)(=O)CC1)c1ccccc1F` [compound 2, (2R)-2-[(2-fluorophenyl)formamido]-N-[2-(1,1-dioxo-1λ6-thiomorpholin-4-yl)phenyl]-3-phenylpropanamide], in series [1] (murine microsomal suspension), the “stability in murine microsomal suspension” value is on record as “comparably low stabilities”. Besides, in series [9], the “MIC90 against Mtb” value is less than 1 µM. The “stability during incubation with human liver microsomes” value in series [2] is on record as “highly unstable”. In series [3], the “stability during incubation with murine liver microsomes” value is reported as “highly unstable”. For the same molecule, in series [10], the viability (in general, a read-out of living cells in per cent, often relative to untreated cells) at 24 h, 50 µM came out at 73%. The “stability in human microsomal suspension” value in series [6] (human microsomal suspension) is listed as “comparably low stabilities”. The “MIC90 against Mabs” value in series [7] is 0.78 µM and < 1 µM.

The values above are taken from article PMC10965373 (ChemMedChem, 2024).
